Where two headings read alike, the source gives them in different places.
Experiments:
Experiment in all cases: biochemical
Type in all cases: binding
[1] = molecular target: panel of 468 diverse kinases (Homo sapiens, UniProt Q8TDX7); conditions: NEK7; 1000 nM; read-out: Percent Control
[2] = molecular target: panel of 468 diverse kinases (Homo sapiens, UniProt Q9P286); conditions: PAK7; 1000 nM; read-out: Percent Control
[3] = molecular target: panel of 468 diverse kinases (Homo sapiens, UniProt P53355); conditions: DAPK1; 1000 nM; read-out: Percent Control
[4] = molecular target: panel of 468 diverse kinases (Homo sapiens, UniProt O43318); conditions: TAK1; 1000 nM; read-out: Percent Control
[5] = molecular target: panel of 468 diverse kinases (Homo sapiens, UniProt Q15835); conditions: GRK1; 1000 nM; read-out: Percent Control
[6] = molecular target: panel of 468 diverse kinases (Homo sapiens, UniProt Q96Q40); conditions: PFTAIRE2; 1000 nM; read-out: Percent Control
[7] = molecular target: panel of 468 diverse kinases (Homo sapiens, UniProt P07948); conditions: LYN; 1000 nM; read-out: Percent Control
Chain of panel of 468 diverse kinases (Homo sapiens, UniProt P07948) (P07948 2-512 limits assumed): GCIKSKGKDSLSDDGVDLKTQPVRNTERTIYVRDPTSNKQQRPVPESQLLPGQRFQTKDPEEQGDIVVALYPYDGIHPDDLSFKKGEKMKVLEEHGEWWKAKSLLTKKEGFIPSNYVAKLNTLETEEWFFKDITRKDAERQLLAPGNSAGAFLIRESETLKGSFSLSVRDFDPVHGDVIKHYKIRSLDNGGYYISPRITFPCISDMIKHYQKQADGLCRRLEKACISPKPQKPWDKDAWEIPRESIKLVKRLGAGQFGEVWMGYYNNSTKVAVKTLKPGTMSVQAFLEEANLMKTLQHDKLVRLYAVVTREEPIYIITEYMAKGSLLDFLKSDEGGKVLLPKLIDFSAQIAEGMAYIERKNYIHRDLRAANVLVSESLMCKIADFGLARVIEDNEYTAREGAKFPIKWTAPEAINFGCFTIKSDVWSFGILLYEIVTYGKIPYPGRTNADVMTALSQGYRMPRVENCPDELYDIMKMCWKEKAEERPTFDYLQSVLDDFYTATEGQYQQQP

[8] = molecular target: panel of 468 diverse kinases (Homo sapiens, UniProt Q00535); conditions: CDK5; 1000 nM; read-out: Percent Control
[9] = molecular target: panel of 468 diverse kinases (Homo sapiens, UniProt Q9H422); conditions: HIPK3; 1000 nM; read-out: Percent Control
[10] = molecular target: panel of 468 diverse kinases (Homo sapiens, UniProt Q9Y2K2); conditions: QSK; 1000 nM; read-out: Percent Control
[11] = molecular target: panel of 468 diverse kinases (Homo sapiens, UniProt P04629); conditions: TRKA; 1000 nM; read-out: Percent Control
Chain of panel of 468 diverse kinases (Homo sapiens, UniProt P04629) (P04629 33-796 limits assumed): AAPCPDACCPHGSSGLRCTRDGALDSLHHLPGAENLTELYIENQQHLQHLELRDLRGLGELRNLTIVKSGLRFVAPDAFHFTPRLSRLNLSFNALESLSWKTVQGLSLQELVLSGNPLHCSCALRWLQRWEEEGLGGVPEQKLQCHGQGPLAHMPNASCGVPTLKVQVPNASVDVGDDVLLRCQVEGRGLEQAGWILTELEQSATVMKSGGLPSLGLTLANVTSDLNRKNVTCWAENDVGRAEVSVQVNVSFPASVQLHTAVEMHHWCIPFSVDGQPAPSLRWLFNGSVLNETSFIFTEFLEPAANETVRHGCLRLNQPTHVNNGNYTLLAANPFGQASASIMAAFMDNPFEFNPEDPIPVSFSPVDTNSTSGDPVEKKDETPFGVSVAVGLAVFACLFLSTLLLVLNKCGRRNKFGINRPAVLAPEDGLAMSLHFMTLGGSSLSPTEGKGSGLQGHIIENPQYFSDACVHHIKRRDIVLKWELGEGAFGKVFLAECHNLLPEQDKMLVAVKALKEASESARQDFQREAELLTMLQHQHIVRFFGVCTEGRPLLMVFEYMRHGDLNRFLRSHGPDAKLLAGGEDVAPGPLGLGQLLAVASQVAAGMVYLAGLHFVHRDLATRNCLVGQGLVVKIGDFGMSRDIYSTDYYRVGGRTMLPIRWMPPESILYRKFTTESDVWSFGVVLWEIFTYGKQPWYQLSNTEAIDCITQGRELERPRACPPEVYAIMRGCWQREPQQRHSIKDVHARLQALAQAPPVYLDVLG

[12] = molecular target: panel of 468 diverse kinases (Homo sapiens, UniProt Q99759); conditions: MAP3K3; 1000 nM; read-out: Percent Control
[13] = molecular target: panel of 468 diverse kinases (Homo sapiens, UniProt Q07002); conditions: PCTK3; 1000 nM; read-out: Percent Control
[14] = molecular target: panel of 468 diverse kinases (Homo sapiens, UniProt Q9HAZ1); conditions: CLK4; 1000 nM; read-out: Percent Control
[15] = molecular target: panel of 468 diverse kinases (Homo sapiens, UniProt P36888); conditions: 1000 nM, read-out: Percent Control
Chain of panel of 468 diverse kinases (Homo sapiens, UniProt P36888) (P36888 27-993 limits assumed): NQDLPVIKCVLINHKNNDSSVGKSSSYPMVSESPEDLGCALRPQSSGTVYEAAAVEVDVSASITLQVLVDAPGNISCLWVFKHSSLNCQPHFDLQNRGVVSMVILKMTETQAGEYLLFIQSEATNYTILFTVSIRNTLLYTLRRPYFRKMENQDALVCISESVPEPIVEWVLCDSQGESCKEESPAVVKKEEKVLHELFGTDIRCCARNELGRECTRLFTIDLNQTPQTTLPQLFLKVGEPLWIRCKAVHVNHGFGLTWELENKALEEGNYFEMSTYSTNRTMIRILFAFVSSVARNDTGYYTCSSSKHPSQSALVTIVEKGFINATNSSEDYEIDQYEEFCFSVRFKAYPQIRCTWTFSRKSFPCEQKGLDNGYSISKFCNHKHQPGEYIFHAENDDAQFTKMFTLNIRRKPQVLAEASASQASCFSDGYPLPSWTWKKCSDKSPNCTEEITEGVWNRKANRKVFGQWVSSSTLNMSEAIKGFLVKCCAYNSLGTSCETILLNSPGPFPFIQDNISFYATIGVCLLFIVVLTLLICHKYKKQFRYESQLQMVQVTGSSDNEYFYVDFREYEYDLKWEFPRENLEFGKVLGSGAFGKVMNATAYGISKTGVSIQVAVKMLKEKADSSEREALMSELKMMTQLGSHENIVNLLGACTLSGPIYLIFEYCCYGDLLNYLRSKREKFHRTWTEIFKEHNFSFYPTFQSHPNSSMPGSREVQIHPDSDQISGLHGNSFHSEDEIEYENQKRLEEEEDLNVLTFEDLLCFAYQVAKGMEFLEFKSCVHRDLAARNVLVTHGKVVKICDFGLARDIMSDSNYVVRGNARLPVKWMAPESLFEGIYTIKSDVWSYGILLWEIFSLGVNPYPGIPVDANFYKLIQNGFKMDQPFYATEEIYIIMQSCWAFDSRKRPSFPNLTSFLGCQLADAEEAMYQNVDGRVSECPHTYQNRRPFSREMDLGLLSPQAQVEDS

[16] = molecular target: panel of 468 diverse kinases (Plasmodium falciparum, UniProt P61075); conditions: read-out: Percent Control
[17] = molecular target: panel of 468 diverse kinases (Homo sapiens, UniProt Q8WTQ7); conditions: GRK7; 1000 nM; read-out: Percent Control
[18] = molecular target: panel of 468 diverse kinases (Homo sapiens, UniProt O15264); conditions: p38-delta; 1000 nM; read-out: Percent Control
[19] = molecular target: panel of 468 diverse kinases (Homo sapiens, UniProt Q9Y6R4); conditions: MAP3K4; 1000 nM; read-out: Percent Control
[20] = molecular target: panel of 468 diverse kinases (Homo sapiens, UniProt O96013); conditions: PAK4; 1000 nM; read-out: Percent Control
[21] = molecular target: panel of 468 diverse kinases (Homo sapiens, UniProt Q13131); conditions: AMPK-alpha1; 1000 nM; read-out: Percent Control
[22] = molecular target: panel of 468 diverse kinases (Homo sapiens, UniProt Q86V86); conditions: PIM3; 1000 nM; read-out: Percent Control
[23] = molecular target: panel of 468 diverse kinases (Homo sapiens, UniProt Q9P2K8, S808G); conditions: GCN2(Kin.Dom.2, S808G); 1000 nM; read-out: Percent Control
[24] = molecular target: panel of 468 diverse kinases (Homo sapiens, UniProt Q8TDC3); conditions: BRSK1; 1000 nM; read-out: Percent Control
[25] = molecular target: panel of 468 diverse kinases (Homo sapiens, UniProt P49761); conditions: CLK3; 1000 nM; read-out: Percent Control
[26] = molecular target: panel of 468 diverse kinases (Homo sapiens, UniProt Q9NWZ3); conditions: IRAK4; 1000 nM; read-out: Percent Control
[27] = molecular target: panel of 468 diverse kinases (Homo sapiens, UniProt P00519, Q252H); conditions: 1000 nM, read-out: Percent Control
[28] = molecular target: panel of 468 diverse kinases (Homo sapiens, UniProt Q15375); conditions: EPHA7; 1000 nM; read-out: Percent Control
Chain of panel of 468 diverse kinases (Homo sapiens, UniProt Q15375) (Q15375 28-998 limits assumed): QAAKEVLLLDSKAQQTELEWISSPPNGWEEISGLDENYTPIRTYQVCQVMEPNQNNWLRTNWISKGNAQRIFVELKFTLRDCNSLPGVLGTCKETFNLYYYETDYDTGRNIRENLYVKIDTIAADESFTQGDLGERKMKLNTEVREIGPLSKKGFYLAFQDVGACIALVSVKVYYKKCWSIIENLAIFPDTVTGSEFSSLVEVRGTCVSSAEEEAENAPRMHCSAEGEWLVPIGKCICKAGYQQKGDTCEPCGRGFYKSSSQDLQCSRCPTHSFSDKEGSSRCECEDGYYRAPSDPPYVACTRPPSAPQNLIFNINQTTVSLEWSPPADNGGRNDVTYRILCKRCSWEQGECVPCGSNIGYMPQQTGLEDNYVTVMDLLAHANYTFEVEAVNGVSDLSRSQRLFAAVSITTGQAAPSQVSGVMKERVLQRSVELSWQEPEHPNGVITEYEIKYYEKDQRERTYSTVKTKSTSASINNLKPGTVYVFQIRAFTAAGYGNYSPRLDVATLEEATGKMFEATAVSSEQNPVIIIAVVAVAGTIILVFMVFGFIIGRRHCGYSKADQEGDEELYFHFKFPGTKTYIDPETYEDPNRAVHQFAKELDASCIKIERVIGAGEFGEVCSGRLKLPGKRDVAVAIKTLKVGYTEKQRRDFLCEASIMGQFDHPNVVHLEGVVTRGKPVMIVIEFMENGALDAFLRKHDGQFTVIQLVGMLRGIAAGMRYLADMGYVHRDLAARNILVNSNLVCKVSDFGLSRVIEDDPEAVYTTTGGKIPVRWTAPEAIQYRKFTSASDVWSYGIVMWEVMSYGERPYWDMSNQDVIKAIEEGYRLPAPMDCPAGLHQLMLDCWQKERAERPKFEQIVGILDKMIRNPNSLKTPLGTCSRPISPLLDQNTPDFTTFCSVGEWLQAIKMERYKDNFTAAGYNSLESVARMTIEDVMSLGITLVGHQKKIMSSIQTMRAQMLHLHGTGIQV

[29] = molecular target: panel of 468 diverse kinases (Homo sapiens, UniProt P17612); conditions: PKAC-alpha; 1000 nM; read-out: Percent Control
[30] = molecular target: panel of 468 diverse kinases (Homo sapiens, UniProt Q8TD08); conditions: ERK8; 1000 nM; read-out: Percent Control
[31] = molecular target: panel of 468 diverse kinases (Homo sapiens, UniProt O95747); conditions: OSR1; 1000 nM; read-out: Percent Control
Chain of panel of 468 diverse kinases (Homo sapiens, UniProt O95747) (O95747 2-527 limits assumed): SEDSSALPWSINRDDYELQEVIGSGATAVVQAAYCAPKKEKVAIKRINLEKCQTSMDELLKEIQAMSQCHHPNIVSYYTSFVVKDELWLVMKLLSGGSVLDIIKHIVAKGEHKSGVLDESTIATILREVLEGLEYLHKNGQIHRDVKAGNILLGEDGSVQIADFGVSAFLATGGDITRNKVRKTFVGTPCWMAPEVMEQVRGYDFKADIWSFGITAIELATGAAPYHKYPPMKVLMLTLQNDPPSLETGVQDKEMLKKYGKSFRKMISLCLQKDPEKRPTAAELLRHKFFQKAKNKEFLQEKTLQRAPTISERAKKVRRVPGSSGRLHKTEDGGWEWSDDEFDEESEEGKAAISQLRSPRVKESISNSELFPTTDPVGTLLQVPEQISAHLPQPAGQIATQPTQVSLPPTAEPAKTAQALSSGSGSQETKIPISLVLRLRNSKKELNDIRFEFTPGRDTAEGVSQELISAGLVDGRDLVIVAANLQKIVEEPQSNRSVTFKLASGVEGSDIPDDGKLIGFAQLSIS

COc1cc2nc(NC3CC3)nc(NC3CCN(C(C)C)CC3)c2cc1OC [Formula IV]
remaining activity at 1 µM [1]: 89%
remaining activity at 1 µM [2]: 92%
remaining activity at 1 µM [3]: 99%
remaining activity at 1 µM [4]: 84%
remaining activity at 1 µM [5]: 67%
remaining activity at 1 µM [6]: 90%
remaining activity at 1 µM [7]: 77%
remaining activity at 1 µM [8]: 93%
remaining activity at 1 µM [9]: 61%
remaining activity at 1 µM [10]: 44%
remaining activity at 1 µM [11]: 67%
remaining activity at 1 µM [12]: 55%
remaining activity at 1 µM [13]: 86%
remaining activity at 1 µM [14]: 69%
remaining activity at 1 µM ([15]; FLT3-autoinhibited): 51%
remaining activity at 1 µM ([15]; FLT3): 100%
remaining activity at 1 µM [16]: 48%
remaining activity at 1 µM [17]: 90%
remaining activity at 1 µM [18]: 98%
remaining activity at 1 µM [19]: 100%
remaining activity at 1 µM [20]: 96%
remaining activity at 1 µM [21]: 92%
remaining activity at 1 µM [22]: 85%
remaining activity at 1 µM [23]: 94%
remaining activity at 1 µM [24]: 92%
remaining activity at 1 µM [25]: 91%
remaining activity at 1 µM [26]: 78%
remaining activity at 1 µM ([27]; ABL1(Q252H)-nonphosphorylated): 84%
remaining activity at 1 µM ([27]; ABL1(Q252H)-phosphorylated): 69%
remaining activity at 1 µM [28]: 93%
remaining activity at 1 µM [29]: 85%
remaining activity at 1 µM [30]: 83%
remaining activity at 1 µM [31]: 73%

From patent US11542240B2, “STK19 inhibitors for treatment of cancer” (TRUSTEES OF BOSTON UNIVERSITY, priority 2018, dated 2023)
